Measurements: ChEMBL document CHEMBL4024782, “Structure-Guided Synthesis and Mechanistic Studies Reveal Sweetspots on Naphthyl Salicyl Hydrazone Scaffold as Non-Nucleosidic Competitive, Reversible Inhibitors of Human Ribonucleotide Reductase” (J Med Chem, 2018)
Calls of active or inactive are those of the source. The calls are words filed in the database; no cut-off is given here.

Legend:
[1] = target: T1, Ribonucleoside-diphosphate reductase subunit M2 (Homo sapiens, UniProt P31350); assay: Inhibition of human RRM2 expressed in Escherichia coli BL21-codon plus(DE3) using [14C]-ADP as substrate after 3 mins by liquid scintillation counting method
T1 sequence (P31350 whole entry): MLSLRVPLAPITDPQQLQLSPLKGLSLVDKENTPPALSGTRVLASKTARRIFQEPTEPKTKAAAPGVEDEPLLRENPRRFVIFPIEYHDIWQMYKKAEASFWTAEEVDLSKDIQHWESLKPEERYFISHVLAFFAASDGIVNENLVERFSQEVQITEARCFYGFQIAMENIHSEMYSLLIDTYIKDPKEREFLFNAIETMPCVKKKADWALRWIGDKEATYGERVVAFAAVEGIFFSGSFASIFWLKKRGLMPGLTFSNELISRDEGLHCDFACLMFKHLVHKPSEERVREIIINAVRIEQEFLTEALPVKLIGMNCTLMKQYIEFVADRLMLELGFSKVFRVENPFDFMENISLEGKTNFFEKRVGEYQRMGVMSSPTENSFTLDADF

[2] = target: T2, Ribonucleoside-diphosphate reductase large subunit (Homo sapiens, UniProt P23921); assay: Inhibition of human RRM1 expressed in Escherichia coli BL21-codon plus(DE3)-RIL using [14C]-ADP as substrate after 3 mins by liquid scintillation counting method
T2 sequence (P23921 whole entry): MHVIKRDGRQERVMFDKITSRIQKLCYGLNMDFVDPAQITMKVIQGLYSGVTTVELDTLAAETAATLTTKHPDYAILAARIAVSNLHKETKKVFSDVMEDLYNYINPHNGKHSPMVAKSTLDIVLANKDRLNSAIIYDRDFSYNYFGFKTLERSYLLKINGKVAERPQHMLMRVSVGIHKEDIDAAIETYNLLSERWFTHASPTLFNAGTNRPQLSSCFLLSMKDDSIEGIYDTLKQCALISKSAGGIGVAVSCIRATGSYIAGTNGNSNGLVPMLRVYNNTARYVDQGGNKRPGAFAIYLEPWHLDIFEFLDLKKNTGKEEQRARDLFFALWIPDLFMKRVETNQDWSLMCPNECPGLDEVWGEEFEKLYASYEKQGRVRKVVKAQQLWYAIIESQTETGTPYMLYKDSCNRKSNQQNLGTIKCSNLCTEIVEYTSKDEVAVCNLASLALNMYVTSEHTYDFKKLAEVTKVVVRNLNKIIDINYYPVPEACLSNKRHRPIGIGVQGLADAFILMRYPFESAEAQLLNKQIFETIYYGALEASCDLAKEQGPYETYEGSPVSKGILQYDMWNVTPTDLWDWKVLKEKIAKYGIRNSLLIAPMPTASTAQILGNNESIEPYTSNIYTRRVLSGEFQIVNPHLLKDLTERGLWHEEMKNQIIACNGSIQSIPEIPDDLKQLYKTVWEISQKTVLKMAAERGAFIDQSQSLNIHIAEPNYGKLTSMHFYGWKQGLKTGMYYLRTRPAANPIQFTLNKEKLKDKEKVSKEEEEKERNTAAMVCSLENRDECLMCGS

MDA-MB-231 [3] = assay: cells; conditions: Homo sapiens, MDA-MB-231, 72 h
MDA-MB-231 [4] = assay: cells; conditions: Homo sapiens, MDA-MB-231, 120 h
MDA-MB-231 [5] = assay: cells; conditions: Homo sapiens, MDA-MB-231, 120 h; remark: listed apart in the source
[6] = Metal chelating activity in pH 7 ammonium acetate buffer assessed as Mg2+-compound complex formation at compound to metal ratio of 1:1 to 1:10 under anaerobic condition by UV spectroscopic method; format: functional
MDA-MB-231 [7] = assay: cells; conditions: Homo sapiens, MDA-MB-231, 120 h; remark: listed apart in the source
[8] = Metal chelating activity in pH 7 ammonium acetate buffer assessed as Fe2+-compound complex formation at compound to metal ratio of 1:4 to 1:50 under anaerobic condition by UV spectroscopic method; format: functional
MDA-MB-231 [9] = assay: cells; conditions: Homo sapiens, MDA-MB-231, 120 h; remark: listed apart in the source
[10] = Metal chelating activity in pH 7 ammonium acetate buffer assessed as Fe3+-compound complex formation at compound to metal ratio of 1:1 to 1:50 under anaerobic condition by UV spectroscopic method; format: functional

SMILES: NC(=S)N/N=C/c1ncccc1N [TRIAPINE]
- IC50 [1]: 0.185 µM

SMILES: COc1cc(/C=N/N=C/c2c(O)ccc3ccccc23)ccc1O
- IC50 [2]: 687 µM

SMILES: Nc1ccn([C@@H]2O[C@H](CO)[C@@H](O)C2(F)F)c(=O)n1 [GEMCITABINE]
- IC50 (MDA-MB-231 [3]): 0.03 to 0.1 µM

SMILES: O=S(=O)(Cc1ccccc1)N/N=C/c1c(O)ccc2ccccc12
- IC50 [2]: 131 µM

SMILES: O=C(N/N=C/c1c(O)ccc2ccccc12)OCc1ccccc1
- IC50 [2]: 120 µM

SMILES: O=C(N/N=C/c1c(O)ccc2ccccc12)c1ccccc1O
- IC50 (MDA-MB-231 [4]): 1.49 µM
- IC50 (MDA-MB-231 [5]): 1.43 µM
- Activity [6]: inactive
- IC50 (MDA-MB-231 [7]): 1.94 µM
- Activity [8]: Active
- IC50 (MDA-MB-231 [9]): 0.347 µM
- IC50 [1]: 123 µM
- Activity [10]: inactive
